Laboratory results taken from ChEMBL document CHEMBL4507268 (2021).

Key:
[1] = target: Alpha-1A adrenergic receptor (Homo sapiens) (UniProt P35348); details: Compound concentration 10.0 uM
[2] = target: Activin receptor type-1-like (Homo sapiens) (UniProt P37023); details: Compound concentration 1000.0 nM
[3] = target: T1, Rhodopsin kinase GRK1 (Homo sapiens) (UniProt Q15835); details: Compound concentration 1000.0 nM
T1 sequence (whole entry): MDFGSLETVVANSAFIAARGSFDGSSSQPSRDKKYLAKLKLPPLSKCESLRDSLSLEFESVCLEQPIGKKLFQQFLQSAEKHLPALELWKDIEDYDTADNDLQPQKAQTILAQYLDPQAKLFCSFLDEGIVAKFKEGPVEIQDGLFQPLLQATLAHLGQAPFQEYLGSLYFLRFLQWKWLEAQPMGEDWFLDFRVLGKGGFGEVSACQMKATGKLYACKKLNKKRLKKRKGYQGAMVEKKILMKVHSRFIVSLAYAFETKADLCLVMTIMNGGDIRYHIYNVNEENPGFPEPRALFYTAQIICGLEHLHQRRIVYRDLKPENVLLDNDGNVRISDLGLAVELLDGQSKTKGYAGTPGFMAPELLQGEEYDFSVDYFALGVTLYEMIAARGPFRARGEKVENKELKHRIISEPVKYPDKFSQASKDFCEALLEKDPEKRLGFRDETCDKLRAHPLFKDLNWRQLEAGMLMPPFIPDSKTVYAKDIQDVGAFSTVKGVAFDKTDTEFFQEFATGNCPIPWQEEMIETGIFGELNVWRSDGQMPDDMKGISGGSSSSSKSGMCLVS

[4] = target: Serine/threonine-protein kinase pim-3 (Homo sapiens) (UniProt Q86V86); details: Compound concentration 1000.0 nM
[5] = target: T2, Serine/threonine-protein kinase Chk1 (Homo sapiens) (UniProt O14757); details: Compound concentration 1000.0 nM
T2 sequence (whole entry): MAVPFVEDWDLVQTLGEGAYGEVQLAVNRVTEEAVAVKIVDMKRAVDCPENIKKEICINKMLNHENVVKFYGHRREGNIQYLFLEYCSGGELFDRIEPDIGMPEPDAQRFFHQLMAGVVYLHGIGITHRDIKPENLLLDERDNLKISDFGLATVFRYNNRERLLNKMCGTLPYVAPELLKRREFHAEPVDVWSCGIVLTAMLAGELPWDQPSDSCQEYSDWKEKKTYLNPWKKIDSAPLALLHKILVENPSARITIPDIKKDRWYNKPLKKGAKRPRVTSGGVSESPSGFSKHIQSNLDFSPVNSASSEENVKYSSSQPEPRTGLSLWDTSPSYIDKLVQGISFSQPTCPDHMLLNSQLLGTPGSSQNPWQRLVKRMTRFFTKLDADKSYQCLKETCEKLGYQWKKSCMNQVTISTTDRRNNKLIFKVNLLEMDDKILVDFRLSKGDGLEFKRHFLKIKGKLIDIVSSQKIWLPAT

[6] = target: STE20-like serine/threonine-protein kinase (Homo sapiens) (UniProt Q9H2G2); details: Compound concentration 1000.0 nM
[7] = target: Ephrin type-A receptor 5 (Homo sapiens) (UniProt P54756); details: Compound concentration 1000.0 nM
[8] = target: Interleukin-1 receptor-associated kinase 1 (Homo sapiens) (UniProt P51617); details: Compound concentration 1000.0 nM
[9] = tested on: Epidermal growth factor receptor (Homo sapiens), P00533 [G719C]; details: Compound concentration 1000.0 nM
[10] = target: Cyclin-dependent kinase 13 (Homo sapiens) (UniProt Q14004); details: Compound concentration 1000.0 nM
[11] = target: Glycogen synthase kinase-3 alpha (Homo sapiens) (UniProt P49840); details: Compound concentration 1000.0 nM
[12] = target: Rho-associated protein kinase 1 (Homo sapiens) (UniProt Q13464); details: Compound concentration 1000.0 nM
[13] = target: Mitogen-activated protein kinase kinase kinase kinase 1 (Homo sapiens) (UniProt Q92918); details: Compound concentration 1000.0 nM
[14] = target: Phosphatidylinositol 5-phosphate 4-kinase type-2 gamma (Homo sapiens) (UniProt Q8TBX8); details: Compound concentration 1000.0 nM
[15] = target: Casein kinase I isoform gamma-2 (Homo sapiens) (UniProt P78368); details: Compound concentration 1000.0 nM
[16] = target: Misshapen-like kinase 1 (Homo sapiens) (UniProt Q8N4C8); details: Compound concentration 1000.0 nM
[17] = target: Cyclin-dependent kinase 11A (Homo sapiens) (UniProt Q9UQ88); details: Compound concentration 1000.0 nM
[18] = target: Receptor tyrosine-protein kinase erbB-4 (Homo sapiens) (UniProt Q15303); details: Compound concentration 1000.0 nM
[19] = target: Serine/threonine-protein kinase 35 (Homo sapiens) (UniProt Q8TDR2); details: Compound concentration 1000.0 nM
[20] = target: T3, Serine/threonine-protein kinase BRSK2 (Homo sapiens) (UniProt Q8IWQ3); details: Compound concentration 1000.0 nM
T3 sequence (whole entry): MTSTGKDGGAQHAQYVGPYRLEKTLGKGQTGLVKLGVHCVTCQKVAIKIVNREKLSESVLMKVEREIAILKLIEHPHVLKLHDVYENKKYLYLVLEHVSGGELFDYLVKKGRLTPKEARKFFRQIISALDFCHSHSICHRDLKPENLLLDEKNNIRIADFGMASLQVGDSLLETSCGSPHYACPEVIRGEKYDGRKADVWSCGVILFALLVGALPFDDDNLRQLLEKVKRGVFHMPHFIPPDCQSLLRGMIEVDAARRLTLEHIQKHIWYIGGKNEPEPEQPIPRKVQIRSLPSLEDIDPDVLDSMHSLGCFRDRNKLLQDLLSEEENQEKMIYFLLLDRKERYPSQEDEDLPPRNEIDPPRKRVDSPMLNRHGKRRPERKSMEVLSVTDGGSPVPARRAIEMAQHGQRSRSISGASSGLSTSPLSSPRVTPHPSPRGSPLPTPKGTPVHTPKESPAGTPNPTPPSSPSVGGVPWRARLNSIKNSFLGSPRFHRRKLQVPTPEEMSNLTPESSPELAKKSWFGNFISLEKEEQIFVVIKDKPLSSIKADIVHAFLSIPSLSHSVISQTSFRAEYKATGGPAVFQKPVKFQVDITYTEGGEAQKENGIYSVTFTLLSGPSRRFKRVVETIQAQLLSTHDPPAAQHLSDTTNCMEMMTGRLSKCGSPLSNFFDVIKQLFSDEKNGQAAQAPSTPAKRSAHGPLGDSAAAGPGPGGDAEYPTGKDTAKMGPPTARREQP

[21] = target: Histamine H4 receptor (Homo sapiens) (UniProt Q9H3N8); details: Compound concentration 10.0 uM

Chain of Interleukin-1 receptor-associated kinase 1 (Homo sapiens) (P51617 whole entry, looked up): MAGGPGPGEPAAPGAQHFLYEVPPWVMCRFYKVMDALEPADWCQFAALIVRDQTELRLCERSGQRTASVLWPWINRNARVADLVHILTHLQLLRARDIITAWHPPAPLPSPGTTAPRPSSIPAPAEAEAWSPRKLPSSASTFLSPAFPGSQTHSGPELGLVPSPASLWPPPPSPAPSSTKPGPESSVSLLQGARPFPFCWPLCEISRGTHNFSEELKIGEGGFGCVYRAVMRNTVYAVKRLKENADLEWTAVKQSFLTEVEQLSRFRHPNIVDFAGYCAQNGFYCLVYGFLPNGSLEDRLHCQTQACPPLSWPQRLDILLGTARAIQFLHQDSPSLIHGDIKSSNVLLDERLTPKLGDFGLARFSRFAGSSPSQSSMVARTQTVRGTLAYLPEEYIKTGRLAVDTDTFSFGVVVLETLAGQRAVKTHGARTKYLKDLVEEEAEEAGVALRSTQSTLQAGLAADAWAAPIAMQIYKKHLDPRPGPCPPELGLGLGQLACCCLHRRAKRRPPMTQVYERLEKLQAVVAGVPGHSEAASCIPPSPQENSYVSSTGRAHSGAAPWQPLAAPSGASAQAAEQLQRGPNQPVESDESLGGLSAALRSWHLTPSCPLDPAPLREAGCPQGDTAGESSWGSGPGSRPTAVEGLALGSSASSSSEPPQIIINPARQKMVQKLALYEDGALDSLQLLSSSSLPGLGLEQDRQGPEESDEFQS
Chain of STE20-like serine/threonine-protein kinase (Homo sapiens) (Q9H2G2 whole entry, looked up): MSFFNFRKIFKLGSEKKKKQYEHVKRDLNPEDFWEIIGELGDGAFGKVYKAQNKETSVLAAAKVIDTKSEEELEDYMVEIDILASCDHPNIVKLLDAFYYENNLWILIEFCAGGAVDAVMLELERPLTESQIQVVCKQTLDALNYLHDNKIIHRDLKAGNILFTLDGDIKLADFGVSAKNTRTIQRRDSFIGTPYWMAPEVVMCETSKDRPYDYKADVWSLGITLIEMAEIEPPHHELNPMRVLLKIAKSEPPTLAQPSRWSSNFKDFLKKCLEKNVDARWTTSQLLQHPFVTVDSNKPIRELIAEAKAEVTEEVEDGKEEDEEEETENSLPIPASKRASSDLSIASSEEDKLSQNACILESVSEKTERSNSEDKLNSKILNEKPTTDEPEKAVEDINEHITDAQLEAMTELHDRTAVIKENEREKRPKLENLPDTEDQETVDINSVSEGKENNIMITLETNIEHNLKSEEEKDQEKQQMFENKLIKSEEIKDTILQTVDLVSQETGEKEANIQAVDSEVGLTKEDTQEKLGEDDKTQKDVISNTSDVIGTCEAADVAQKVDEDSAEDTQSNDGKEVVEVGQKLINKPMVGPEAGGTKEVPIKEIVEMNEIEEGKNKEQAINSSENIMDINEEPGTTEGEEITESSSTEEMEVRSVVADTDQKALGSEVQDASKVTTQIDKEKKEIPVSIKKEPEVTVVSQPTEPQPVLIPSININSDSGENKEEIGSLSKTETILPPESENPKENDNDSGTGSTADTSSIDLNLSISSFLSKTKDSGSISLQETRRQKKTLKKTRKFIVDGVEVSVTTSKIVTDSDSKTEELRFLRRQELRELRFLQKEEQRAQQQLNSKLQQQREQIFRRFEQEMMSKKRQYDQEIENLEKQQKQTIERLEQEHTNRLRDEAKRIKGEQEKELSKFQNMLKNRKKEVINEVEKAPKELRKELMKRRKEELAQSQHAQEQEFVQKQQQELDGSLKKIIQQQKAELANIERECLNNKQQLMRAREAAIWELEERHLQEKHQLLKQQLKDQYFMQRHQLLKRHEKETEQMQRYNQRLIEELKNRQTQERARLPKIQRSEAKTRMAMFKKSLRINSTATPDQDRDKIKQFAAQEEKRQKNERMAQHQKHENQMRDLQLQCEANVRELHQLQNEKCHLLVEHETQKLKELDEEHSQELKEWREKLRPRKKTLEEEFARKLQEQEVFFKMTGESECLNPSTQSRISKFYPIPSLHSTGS
Chain of Cyclin-dependent kinase 13 (Homo sapiens) (Q14004 whole entry, looked up): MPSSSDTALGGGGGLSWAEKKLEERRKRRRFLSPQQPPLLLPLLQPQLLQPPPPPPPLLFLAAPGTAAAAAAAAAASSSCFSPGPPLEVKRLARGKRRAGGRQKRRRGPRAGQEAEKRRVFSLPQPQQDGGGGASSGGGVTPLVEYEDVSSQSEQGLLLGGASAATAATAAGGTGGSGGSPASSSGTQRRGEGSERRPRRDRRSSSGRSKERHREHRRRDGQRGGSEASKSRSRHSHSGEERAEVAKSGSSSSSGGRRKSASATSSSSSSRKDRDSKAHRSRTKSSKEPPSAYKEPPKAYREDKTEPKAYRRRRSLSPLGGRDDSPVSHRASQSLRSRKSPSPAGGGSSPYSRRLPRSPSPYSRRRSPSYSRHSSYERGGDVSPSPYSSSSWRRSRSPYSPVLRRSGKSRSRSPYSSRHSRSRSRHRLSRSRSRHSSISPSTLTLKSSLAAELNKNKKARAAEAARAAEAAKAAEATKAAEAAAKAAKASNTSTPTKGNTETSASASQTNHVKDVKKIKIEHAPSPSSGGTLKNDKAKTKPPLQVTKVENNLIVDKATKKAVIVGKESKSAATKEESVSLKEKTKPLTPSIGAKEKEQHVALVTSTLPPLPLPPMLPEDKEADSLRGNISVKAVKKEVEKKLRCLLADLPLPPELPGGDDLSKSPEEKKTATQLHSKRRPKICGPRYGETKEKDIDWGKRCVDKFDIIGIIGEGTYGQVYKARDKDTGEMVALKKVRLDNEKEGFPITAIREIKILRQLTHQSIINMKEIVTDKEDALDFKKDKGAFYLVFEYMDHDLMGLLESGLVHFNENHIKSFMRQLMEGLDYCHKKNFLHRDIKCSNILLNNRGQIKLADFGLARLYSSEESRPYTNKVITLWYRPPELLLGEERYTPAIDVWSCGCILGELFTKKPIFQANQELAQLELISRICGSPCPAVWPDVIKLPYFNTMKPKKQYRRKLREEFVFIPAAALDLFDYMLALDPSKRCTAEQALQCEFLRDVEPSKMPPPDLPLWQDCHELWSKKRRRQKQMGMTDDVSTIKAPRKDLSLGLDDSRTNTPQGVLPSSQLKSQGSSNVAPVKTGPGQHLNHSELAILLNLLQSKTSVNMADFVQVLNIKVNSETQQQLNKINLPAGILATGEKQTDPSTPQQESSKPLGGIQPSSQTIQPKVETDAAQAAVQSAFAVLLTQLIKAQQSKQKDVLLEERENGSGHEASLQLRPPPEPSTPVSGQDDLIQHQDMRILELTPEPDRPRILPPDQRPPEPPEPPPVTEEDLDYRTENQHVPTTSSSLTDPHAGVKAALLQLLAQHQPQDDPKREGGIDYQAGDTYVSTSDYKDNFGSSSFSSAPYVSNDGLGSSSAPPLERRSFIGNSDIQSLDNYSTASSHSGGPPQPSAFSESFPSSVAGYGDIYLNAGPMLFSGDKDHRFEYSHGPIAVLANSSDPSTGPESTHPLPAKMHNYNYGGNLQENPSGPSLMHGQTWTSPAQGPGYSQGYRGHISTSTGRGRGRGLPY
Chain of Misshapen-like kinase 1 (Homo sapiens) (Q8N4C8 whole entry, looked up): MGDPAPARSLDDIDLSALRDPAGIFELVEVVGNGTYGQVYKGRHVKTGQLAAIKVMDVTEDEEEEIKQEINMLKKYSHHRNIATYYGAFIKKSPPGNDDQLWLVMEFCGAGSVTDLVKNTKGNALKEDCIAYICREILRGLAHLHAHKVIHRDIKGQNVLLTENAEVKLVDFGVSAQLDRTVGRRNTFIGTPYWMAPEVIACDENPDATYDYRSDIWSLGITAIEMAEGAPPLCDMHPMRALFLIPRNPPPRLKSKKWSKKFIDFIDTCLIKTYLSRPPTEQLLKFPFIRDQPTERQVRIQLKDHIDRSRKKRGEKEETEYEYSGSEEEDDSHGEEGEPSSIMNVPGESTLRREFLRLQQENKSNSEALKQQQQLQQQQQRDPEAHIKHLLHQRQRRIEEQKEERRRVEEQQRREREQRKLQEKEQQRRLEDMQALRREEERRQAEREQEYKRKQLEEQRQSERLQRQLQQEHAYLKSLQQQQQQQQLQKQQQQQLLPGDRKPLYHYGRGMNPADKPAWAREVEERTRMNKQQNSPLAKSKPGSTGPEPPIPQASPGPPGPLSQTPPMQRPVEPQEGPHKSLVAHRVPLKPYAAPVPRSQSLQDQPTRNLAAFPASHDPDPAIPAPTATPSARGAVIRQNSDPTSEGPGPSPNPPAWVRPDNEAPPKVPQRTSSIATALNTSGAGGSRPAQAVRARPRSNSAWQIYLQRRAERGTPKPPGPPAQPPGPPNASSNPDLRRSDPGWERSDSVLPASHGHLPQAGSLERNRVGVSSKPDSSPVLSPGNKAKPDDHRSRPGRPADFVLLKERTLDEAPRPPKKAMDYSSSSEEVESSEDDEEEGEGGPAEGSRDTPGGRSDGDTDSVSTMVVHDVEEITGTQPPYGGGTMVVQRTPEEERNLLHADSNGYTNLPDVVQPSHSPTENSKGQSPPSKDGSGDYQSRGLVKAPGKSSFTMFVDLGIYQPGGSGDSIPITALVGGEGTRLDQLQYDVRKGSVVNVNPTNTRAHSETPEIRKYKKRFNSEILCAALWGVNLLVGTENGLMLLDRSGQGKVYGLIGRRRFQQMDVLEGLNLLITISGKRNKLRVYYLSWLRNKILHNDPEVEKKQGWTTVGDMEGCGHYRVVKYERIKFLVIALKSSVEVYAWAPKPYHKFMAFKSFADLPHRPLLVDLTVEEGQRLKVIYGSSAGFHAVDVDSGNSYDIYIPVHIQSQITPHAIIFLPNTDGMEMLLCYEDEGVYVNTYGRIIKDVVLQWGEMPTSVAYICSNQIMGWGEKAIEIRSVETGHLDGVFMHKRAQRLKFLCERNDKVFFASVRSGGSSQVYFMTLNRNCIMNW

Cc1nc(C2CCN(C(=O)c3ccc(OC(F)(F)F)cc3N)CC2)c2ncc(N3CCN(C)CC3)cc2n1 [BAY-693]
inactive: inhibition [1] -9.85% | residual activity [2] 91% | residual activity [3] 100% | residual activity [4] 100% | residual activity [5] 100% | residual activity [6] 97% | residual activity [7] 99% | residual activity [8] 100% | residual activity [9] 100% | residual activity [10] 88% | residual activity [11] 85% | residual activity [12] 100% | residual activity [13] 96% | residual activity [14] 100% | residual activity [15] 93% | residual activity [16] 93% | residual activity [17] 100% | residual activity [18] 100% | residual activity [19] 100% | residual activity [20] 100% | inhibition [21] -5.28%

CN1CCN(c2cnc3c(C4CCN(C(=O)c5ccc(OC(F)(F)F)cc5N)CC4)ncnc3c2)CC1 [BAY-885]
inactive: inhibition [1] 1.11% | residual activity [2] 94% | residual activity [3] 96% | residual activity [4] 100% | residual activity [5] 100% | residual activity [6] 96% | residual activity [7] 91% | residual activity [8] 100% | residual activity [9] 94% | residual activity [10] 62% | residual activity [11] 100% | residual activity [12] 100% | residual activity [13] 88% | residual activity [14] 100% | residual activity [15] 100% | residual activity [16] 85% | residual activity [17] 61% | residual activity [18] 79% | residual activity [19] 100% | residual activity [20] 100% | inhibition [21] -1.34%
